Experimental data from US4647693A, “Antibiotics DO-248-A and B and process for preparing the same” (Shionogi & Co., Ltd., priority 1984, dated 1987).
In brackets after ≈: the same amount, converted by molar mass. Entries after “also recorded” stand apart in the source; their conditions may differ. Where two headings read alike, the source gives them in different places.

Key:
M. tuberculosis H37Rv = assay: MIC, two-fold dilution, Dubos Tween albumin liquid medium; type: cell-based; details: Mycobacterium tuberculosis, 336 h, 37° C., 2 weeks, read-out: minimal inhibitory concentration (MIC)
Method: (§1) Fast-acid bacillus (0.01 mg) shown in Table 1 was inoculated into 2.0 ml of Dubos Tween albumin liquid medium and the minimal inhibitory concentration (MIC, μg/ml) of DO-248-A (Compound A), kanamycin (KM) and rifampicin (RFP) was measured by two-fold dilution method. The incubation temperature for Mycobacterium marinum was 28° C. and that for all other microorganisms was 37° C. The judgement was made generally 2 weeks later but 1 week later on M. furtuitum and M. chelonei and 5 weeks later on M. xenopi.

M. bovis BCG = assay: microbe, parasite or virus in culture; type: cell-based; details: Mycobacterium tuberculosis variant bovis BCG, 336 h, read-out: minimal inhibitory concentration (MIC)
M. kansasii KMC1101 = assay: MIC, two-fold dilution, Dubos Tween albumin liquid medium; type: cell-based; details: Mycobacterium kansasii, read-out: minimal inhibitory concentration (MIC)
M. scrofulaceum KMC2102 = assay: as above; type: cell-based; details: Mycobacterium scrofulaceum, read-out: minimal inhibitory concentration (MIC)
M. gordonae KMC2201 = assay: as above; type: cell-based; details: Mycobacterium gordonae, read-out: minimal inhibitory concentration (MIC)
M. szulgai KMC2401 = assay: as above; type: cell-based; details: 336 h, read-out: minimal inhibitory concentration (MIC)
M. xenopi KMC2301 = assay: as above; type: cell-based; details: Mycobacterium xenopi
M. simiae KMC1302 = assay: as above; type: cell-based; details: 336 h, read-out: minimal inhibitory concentration (MIC)
M. avium KMC3101 = assay: as above; type: cell-based; details: Mycobacterium avium, read-out: minimal inhibitory concentration (MIC)
[1] = test system: M. intracellulare KMC3209; assay: as above; type: cell-based; details: Mycobacterium intracellulare, read-out: minimal inhibitory concentration (MIC)
[2] = test system: M. nonchromogenicum KMC3602; assay: as above; type: cell-based; details: 336 h, read-out: minimal inhibitory concentration (MIC)
M. fortuitum KMC4101 = assay: as above; type: cell-based; details: Mycolicibacterium fortuitum, read-out: minimal inhibitory concentration (MIC)
M. chelonei KMC4201 = assay: as above; type: cell-based; details: read-out: minimal inhibitory concentration (MIC)
[3] = test system: M. avium-intracellulare clinical isolated strain 16; assay: as above; type: cell-based; details: 336 h, read-out: minimal inhibitory concentration (MIC)
[4] = test system: fast-acid bacteria including tubercle bacillus; assay: Antibacterial activity against fast-acid (acid-fast) bacteria, in words; type: cell-based; details: for antibacterial activity against fast-acid (acid-fast) bacteria: in words
Method: as §1

[5] = test system: kanamycin-resistant strains; assay: Antibacterial activity against resistant strains, in words; type: cell-based
Method: as §1

[6] = test system: rifanpicin-resistant strains; assay: as above; type: cell-based
Method: as §1

[7] = test system: M. aviumintracellulare, a causative microorganism of refractory atypical fast-acid disease; assay: Comparative antibacterial activity, in words; type: cell-based; details: for activity against the pathogenic bacterium of atypical fast-acid bacterium disease relative to kanamycin: compared with kanamycin
Solubility = type: physicochemical
[8] = 336 h, M. kansasii KMC1101, 37° C., 2 weeks
[9] = 336 h, M. scrofulaceum KMC2102, 37° C., 2 weeks
[10] = 336 h, M. gordonae KMC2201, 37° C., 2 weeks
[11] = M. szulgai KMC2401, 37° C., 2 weeks
[12] = M. xenopi KMC2301, 37° C., 5 weeks, read-out: minimal inhibitory concentration (MIC)
[13] = M. simiae KMC1302, 37° C., 2 weeks
[14] = 336 h, M. avium KMC3101, 37° C., 2 weeks
[15] = 336 h, M. intracellulare KMC3209, 37° C., 2 weeks
[16] = M. nonchromogenicum KMC3602, 37° C., 2 weeks
[17] = 168 h, M. fortuitum KMC4101, 37° C., 1 week
[18] = 168 h, M. chelonei KMC4201, 37° C., 1 week
[19] = M. avium-intracellulare clinical isolated strain 16, 37° C., 2 weeks

Row | Structure (SMILES) | MIC (M. tuberculosis H37Rv) | MIC (M. bovis BCG) | MIC (M. kansasii KMC1101; [8]) | MIC (M. scrofulaceum KMC2102; [9]) | MIC (M. gordonae KMC2201; [10]) | MIC (M. szulgai KMC2401; [11]) | MIC (M. xenopi KMC2301; [12]) | MIC (M. simiae KMC1302; [13]) | MIC (M. avium KMC3101; [14]) | MIC [1, 15] | MIC [2, 16] | MIC (M. fortuitum KMC4101; [17]) | MIC (M. chelonei KMC4201; [18]) | MIC [3, 19] | antibacterial activity against fast-acid (acid-fast) bacteria [4] | effectiveness against kanamycin-resistant strains [5] | effectiveness against rifanpicin-resistant strains [6] | activity against the pathogenic bacterium of atypical fast-acid bacterium disease relative to kanamycin [7] | further results
1 | CC(C)c1c(O)cc(C(NC(=N)N)C(=O)NCC(=O)O)cc1O (stereo not drawn) [DO-248-A, N-(α-guanidino-3,5-dihydroxy-4-isopropylphenylacetyl)glycine] | 0.05 µg/mL (≈ 0.154 µM) | 0.05 µg/mL (≈ 0.154 µM) | 0.00313 µg/mL (≈ 0.00965 µM) | 0.2 µg/mL (≈ 0.617 µM) | 0.00625 µg/mL (≈ 0.0193 µM) | 3.13 µg/mL (≈ 9.65 µM) | 0.39 µg/mL (≈ 1.2 µM) | 6.25 µg/mL (≈ 19.3 µM) | 0.78 µg/mL (≈ 2.4 µM) | 0.025 µg/mL (≈ 0.0771 µM) | 12.5 µg/mL (≈ 38.5 µM) | > 25 µg/mL | > 25 µg/mL | 0.1 µg/mL (≈ 0.308 µM) | effective; also recorded: have antibacterial activity | effective; also recorded: have antibacterial activity | effective; also recorded: have antibacterial activity | more active | effectiveness against M. aviumintracellulare relative to kanamycin and rifanpicin ([7]; compared with kanamycin and rifanpicin): more effective; Solubility (Solubility; in acetone): slightly soluble; Solubility (Solubility; in benzene): insoluble; Solubility (Solubility; in chloroform): slightly soluble; Solubility (Solubility; in dimethylformamide): readily soluble; Solubility (Solubility; in ethanol): readily soluble; Solubility (Solubility; in ether): insoluble; Solubility (Solubility; in ethylacetate): slightly soluble; Solubility (Solubility; in hexane): insoluble; Solubility (Solubility; in methanol): readily soluble; Solubility (Solubility; in water): soluble
2 | NC[C@H]1O[C@H](O[C@H]2[C@H](O)[C@@H](O[C@H]3O[C@H](CO)[C@@H](O)[C@H](N)[C@H]3O)[C@H](N)C[C@@H]2N)[C@H](O)[C@@H](O)[C@@H]1O [KM, kanamycin] | 0.025 µg/mL (≈ 0.0516 µM) | 0.00156 µg/mL (≈ 0.00322 µM) | – | – | – | – | – | – | – | – | – | – | – | – | – | – | – | – | MIC (M. kansasii KMC1101; KMC1101, 336 h): 6.25 µg/mL (≈ 12.9 µM); MIC (M. scrofulaceum KMC2102; KMC2102, 336 h): 0.0125 µg/mL (≈ 0.0258 µM); MIC (M. gordonae KMC2201; KMC2201, 336 h): 0.39 µg/mL (≈ 0.805 µM); MIC (M. szulgai KMC2401): 1.56 µg/mL (≈ 3.22 µM); MIC (M. xenopi KMC2301; KMC2301, read-out: minimal inhibitory concentration (MIC)): 0.1 µg/mL (≈ 0.206 µM); MIC (M. simiae KMC1302): 12.5 µg/mL (≈ 25.8 µM); MIC (M. avium KMC3101; KMC3101, 336 h): 3.13 µg/mL (≈ 6.46 µM); MIC ([1]; KMC3209, 336 h): 0.05 µg/mL (≈ 0.103 µM); MIC [2]: > 25 µg/mL; MIC (M. fortuitum KMC4101; KMC4101, 168 h): 25 µg/mL (≈ 51.6 µM); MIC (M. chelonei KMC4201; KMC4201, 168 h): > 25 µg/mL; MIC [3]: 6.25 µg/mL (≈ 12.9 µM)
3 | CCc1c(O)cc(C(NC(=N)N)C(=O)NCC(=O)O)cc1O (stereo not drawn) [DO-248-B, N-(α-guanidino-3,5-dihydroxy-4-ethylphenylacetyl)glycine] | – | – | – | – | – | – | – | – | – | – | – | – | – | – | effective; also recorded: have antibacterial activity | have antibacterial activity | have antibacterial activity | more active | effectiveness relative to DO-248-A ([4]; compared with DO-248-A): as effective as DO-248-A
4 | CO[C@H]1/C=C/O[C@@]2(C)Oc3c(C)c(O)c4c(O)c(c(/C=N/N5CCN(C)CC5)c(O)c4c3C2=O)NC(=O)/C(C)=C\C=C\[C@H](C)[C@H](O)[C@@H](C)[C@@H](O)[C@@H](C)[C@H](OC(C)=O)[C@@H]1C [RFP, rifampicin] | < 0.001 µg/mL | < 0.001 µg/mL | 0.0125 µg/mL (≈ 0.0152 µM) | 0.00313 µg/mL (≈ 0.0038 µM) | 0.0125 µg/mL (≈ 0.0152 µM) | 0.025 µg/mL (≈ 0.0304 µM) | 0.00625 µg/mL (≈ 0.00759 µM) | > 25 µg/mL | 0.2 µg/mL (≈ 0.243 µM) | < 0.001 µg/mL | 25 µg/mL (≈ 30.4 µM) | 3.13 µg/mL (≈ 3.8 µM) | 6.25 µg/mL (≈ 7.59 µM) | 3.13 µg/mL (≈ 3.8 µM) | – | – | – | – | –
